The text below walks through data of patent publication US20170150719A1, “FUNGICIDAL PYRAZOLES AND THEIR MIXTURES” (E I DU PONT DE NEMOURS AND COMPANY, priority 2010, published 2017).

The test system of series [1] is Septoria tritici. Description: Test F: wheat leaf blotch, preventive spray on wheat seedlings, visual disease rating. To be noted: 100 = 100% disease control, 0 = no disease control relative to the controls. The format is in vivo. The text has this: (§1) A hyphen (-) indicates no test results.
The subject of series [2] is Puccinia recondita f. sp. tritici. Description: Test G: wheat leaf rust, spray after inoculation (curative) on wheat seedlings, visual disease rating. Format: in vivo. The conditions noted are these: 100 = 100% disease control.
Description: as §1

Series [3] has the same test system. Description: Test H: wheat leaf rust, preventive spray on wheat seedlings, visual disease rating. The conditions noted are these: 100 = 100% disease control, 0 = no disease control; for Test H rating (disease control): wheat leaf rust, sprayed the day before inoculation.
Series [4] deals with Botrytis cinerea. Description: Test A: tomato Botrytis, preventive spray on tomato seedlings, visual disease rating. To be noted: 100 = 100% disease control, 0 = no disease control relative to the controls; for Test A rating (disease control): tomato Botrytis.
For series [5], the system named is Alternaria solani. Description: Test B: tomato early blight, preventive spray on tomato seedlings, visual disease rating. The conditions noted are these: for Test B rating (disease control): 0 = no disease control relative to the controls.
The test system of series [6] is Blumeria graminis f. sp. tritici. Description: Test I: wheat powdery mildew, preventive spray on wheat seedlings, visual disease rating. To be noted: 100 = 100% disease control, 0 = no disease control relative to the controls; for Test I rating (disease control): wheat powdery mildew.
Series [7] concerns Septoria nodorum. Description: Test E: Septoria glume blotch, preventive spray on wheat seedlings, visual disease rating. The conditions noted are these: 100 = 100% disease control; for Test E rating (disease control): Septoria glume blotch.
Series [8] can be described thus: Single oral dose pharmacokinetics in rats, plasma and fat by LC/MS (fat:plasma distribution). The format is in vivo. To be noted: single oral dose via gavage, compared to corresponding compounds wherein R^2 is other than H. Here is the method: The pharmacokinetic properties of compounds of Formula 1 can be measured using a wide variety of assay protocols known in the science of pharmacology. In one illustrative method involving a single oral dose, three male and three female rats receive a single dose of a test substance via oral gavage. Approximately 0.25 mL of blood is collected via tail vein immediately prior to dosing, and then at 0.25, 0.5, 1, 2, 4, 8, 12, 24 h and every 24 h thereafter until sacrifice. At sacrifice, fat is also collected to determine the fat:plasma ratio at sacrifice. Blood is collected into tubes that contain ethylenediaminetetracetic acid (EDTA) and centrifuged at 2500×g in order to separate plasma from blood cells. The plasma is then extracted by protein precipitation using, for example, acetonitrile and a protein precipitation plate (e.g., Strata Impact Protein Precipitation Plate, part number CEO-7565 of Phenomenex, Torrance, Calif., U.S.A.) following directions provided for the plate. Alternatively, the plasma is extracted just with acetonitrile, vortexed (i.e. mixed using a vortex mixer), and centrifuged to pellet the proteins. After removal of the proteins, the plasma is analyzed for parent compound and/or metabolites by liquid chromatography-mass spectrometry (LC/MS). The fat is homogenized and extracted by an organic solvent such as acetonitrile. The extract is then analyzed for parent compound and/or metabolites by LC/MS. The plasma pharmacokinetic data is then analyzed using nonlinear modeling software (e.g., WinNonlin™ from Pharsight, Cary, N.C., U.S.A.) to determine half-life of the administered compound in plasma, the time after administration when the maximum plasma concentration is reached (Tmax), the maximum plasma concentration (Cmax) and the area under the plasma concentration curve (AUC). As analysis of fat requires rat sacrifice, fat data is obtained at single time points (i.e. the time of rat sacrifice). However, by using multiple rats sacrificed after different intervals from time of dosing, such parameters as Cmax for fat are determined.

In series [9] the test system is Phytophthora infestans. Description: whole plant or invertebrate. Format: in vivo. The conditions noted are these: tomato late blight, 100 = 100% disease control; for Test C rating (disease control): 0 = no disease control relative to the controls.
Series [10] concerns Rhizoctonia solani. Description: Test D: turf brown patch, preventive spray on creeping bent grass seedlings, disease rating. The conditions noted are these: 100 = 100% disease control, 0 = no disease control relative to the controls.
Description: General protocol for preparing test suspensions for Tests A-I: the test compounds were first dissolved in acetone in an amount equal to 3% of the final volume and then suspended at the desired concentration (in ppm) in acetone and purified water (50/50 mix by volume) containing 250 ppm of the surfactant Trem® 014 (polyhydric alcohol esters). The resulting test suspensions were then used in Tests A-I. Each test was conducted in triplicate, and the results were averaged. Spraying a 200 ppm test suspension to the point of run-off on the test plants was the equivalent of a rate of about 800 g/ha. Unless otherwise indicated, the rating values indicate a 200 ppm test suspension was used. (An asterisk “*” next to the rating value indicates a 40 ppm test suspension was used.)
The test suspension was sprayed to the point of run-off on creeping bent grass (Agrostis sp.) seedlings. The following day the seedlings were inoculated with a bran and mycelial slurry of Rhizoctonia solani (the causal agent of turf brown patch) and incubated in a saturated atmosphere at 27° C. for 48 h, and then moved to a growth chamber at 27° C. for 3 days, after which time disease ratings were made.
Setting [11] is: tomato early blight, 100 = 100% disease control.
Setting [12] is: 0 = no disease control relative to the controls.

On to `Cc1nn(C)c(Nc2ccc(Cl)cc2F)c1-c1c(F)cc(C#N)cc1F` [Compound 40, 4-[5-[(4-chloro-2-fluorophenyl)amino]-1,3-dimethyl-1H-pyrazol-4-yl]-3,5-difluorobenzonitrile], for which the melting point fell in the range of 93 to 95 °C. In series [1] (Zymoseptoria tritici), this compound had a pest or weed control at 200 µg/mL of 100%. In series [2] (sprayed after inoculation, 0 = no disease control), this compound registered a pest or weed control at 200 µg/mL of 63%. The pest or weed control at 200 µg/mL in series [3] (read-out: Test H rating (disease control), wheat leaf rust, sprayed the day before inoculation) was found to be 100%. Moreover, in [4] (Botrytis cinerea, in Solanum lycopersicum, read-out: Test A rating (disease control), tomato Botrytis), the pest or weed control at 200 µg/mL is 99%. For the same compound, the pest or weed control at 200 µg/mL in [5] (Alternaria solani, in Solanum lycopersicum, read-out: Test B rating (disease control)) was 99%. Also, the pest or weed control at 200 µg/mL in series [6] (Blumeria graminis, in Triticum aestivum, read-out: Test I rating (disease control), wheat powdery mildew) is 100%. Also, the pest or weed control at 200 µg/mL in series [7] (Parastagonospora nodorum, in Triticum aestivum, read-out: Test E rating (disease control), Septoria glume blotch, 0 = no disease control relative to the controls) stood at 100%.

As to `Cc1nn(C)c(Nc2c(F)cccc2Br)c1-c1ccc(F)cc1Cl` [Compound 241, N-(2-bromo-6-fluorophenyl)-4-(2-chloro-4-fluorophenyl)-1,3-dimethyl-1H-pyrazol-5-amine], the distribution into fat result in series [8] is listed as “significantly diminished distribution into fat”.

With `Cc1nn(C)c(Nc2c(F)cccc2Cl)c1-c1ccc(F)cc1Cl` [Compound 239, 4-(2-chloro-4-fluorophenyl)-N-(2-chloro-6-fluorophenyl)-1,3-dimethyl-1H-pyrazol-5-amine], the melting point was 166 to 168 °C. In addition, the “Test C rating (% disease control)” value in [9] (preventive spray, rating without asterisk) stood at 0%. Also, the “Test G rating (% disease control)” value in series [2] (spray after inoculation, rating without asterisk) turned out to be 100%. Further, the distribution into fat entry in series [8] is given as “significantly diminished distribution into fat”. The “Test B rating (% disease control)” value in [5] (tomato early blight, preventive spray, 100 = 100% disease control, rating without asterisk) worked out at 100%. Moreover, in series [7] (Septoria glume blotch on wheat, preventive spray, rating without asterisk), the “Test E rating (% disease control)” value is on record as 99%.

As for `Cc1nn(C)c(Nc2c(F)cccc2Cl)c1-c1ccc(F)cc1Br` [Compound 240, 4-(2-Bromo-4-fluorophenyl)-N-(2-chloro-6-fluorophenyl)-1,3-dimethyl-1H-pyrazol-5-amine], the distribution into fat entry in [8] is recorded as “significantly diminished distribution into fat”.

On to `Cc1nn(C)c(Nc2c(F)cccc2Br)c1-c1ccc(F)cc1F` [Compound 245, N-(2-bromo-6-fluorophenyl)-4-(2,4-difluorophenyl)-1,3-dimethyl-1H-pyrazol-5-amine], for which the melting point was in the range of 149 to 151 °C.

Regarding `Cc1nn(C)c(Nc2ccc(F)cc2F)c1-c1ccc(F)cc1Cl` [compound 2], in series [9], the “Test C rating (disease control)” value is listed as 0%. Further, in series [1], the “Test F rating (disease control)” value stood at 100%. The “Test H rating (disease control)” value in series [3] was determined as 100%. Also, the “Test A rating (disease control)” value in [4] amounted to 99%. Moreover, the “Test B rating (disease control)” value in [5] (setting [11]) worked out at 100%. Also, the “Test I rating (disease control)” value in series [6] amounted to 99%. Moreover, the “Test E rating (disease control)” value in series [7] (setting [12]) came out at 64%. Also, the “Test D rating (disease control)” value in series [10] was found to be 98%.

`Cc1nn(C)c(Nc2ccccc2F)c1-c1ccc(F)cc1Cl` [compound 1]: the “Test C rating (disease control)” value in series [9] was 0%. Besides, the “Test F rating (disease control)” value in series [1] was 100%. For the same compound, in series [3], the “Test H rating (disease control)” value is given as 99%. In [4], the “Test A rating (disease control)” value was found to be 99%. The “Test B rating (disease control)” value in series [5] (setting [11]) is recorded as 93%. The “Test I rating (disease control)” value in [6] was 100%. The “Test E rating (disease control)” value in series [7] (setting [12]) is on record as 0%. Moreover, the “Test D rating (disease control)” value in series [10] turned out to be 99%.

By melting point is commonly meant the temperature, or range, at which the solid turns liquid.
